Reference: patent publication US10278942B2 (PELOTON THERAPEUTICS, INC., priority 2015, dated 2019)

Tested on: 786-O-Hif-Luc cells
Assay: Luciferase Assay (HIF responsive elements reporter)
Details: read-out: Mean Luciferase EC50 (nM)
Experimental: A pool of infected cells were then selected against 2 μg/mL of puromycin (P8833, Sigma) for 10 days followed by limited dilution to select single clones. […] Each concentration was tested in triplicate. After about 24 hours, luciferase activity was determined using ONE-Glo Luciferase Assay Reagent (E6110, Promega) following the manufacturer's recommended procedure. EC50 were calculated using Dotmatics software.

EC50 [nM] | SMILES
50 to 249 | CCS(=O)(=O)c1ccc(Oc2cc(F)cc(C#N)c2)c2c1[C@H](O)C(F)(F)C2 [Compound 206]
< 50 | [2H][C@]1(O)c2c(S(C)(=O)=O)ccc(Oc3cc(F)cc(C#N)c3)c2CC1(F)F [Compound 247]
250 to 1000 | N#Cc1cccc(Oc2ccc(S(=O)(=O)C(F)F)c3c2CC[C@H]3O)c1 [Compound 156]
< 50 | N#Cc1cncc(Oc2ccc(S(=O)(=O)C(F)(F)F)c3c2CC(F)(F)[C@H]3O)c1 [Compound 235]
50 to 249 | N#Cc1cc(F)cc(Oc2ccc(S(=O)(=O)C(F)(F)F)c3c2CC[C@H]3O)c1 [Compound 57]
< 50 | CS(=O)(=O)c1ccc(Oc2cc(F)cc(C#N)c2)c2c1[C@H](O)C(F)(F)C2 [Compound 163, (S)-3-((2,2-Difluoro-1-hydroxy-7-(methylsulfonyl)-2,3-dihydro-1H-inden-4-yl)oxy)-5-fluorobenzonitrile]
< 50 | NS(=O)(=O)c1ccc(Oc2cc(F)cc(F)c2)c2c1[C@H](O)C(F)(F)C2 [Compound 256]
< 50 | [2H]C([2H])([2H])S(=O)(=O)c1ccc(Oc2cc(F)cc(C#N)c2)c2c1[C@]([2H])(O)C(F)(F)C2 [Compound 229]
50 to 249 | N#Cc1cc(F)cc(Oc2ccc(S(=O)(=O)C(F)(F)F)c3c2CC(F)(F)[C@H]3N)c1 [Compound 290]
250 to 1000 | C[C@H]1C[C@@H](O)c2c(S(=O)(=O)C(F)F)ccc(Oc3cc(F)cc(Cl)c3)c21 [Compound 7a]
250 to 1000 | N#Cc1cc(F)cc(Oc2ccc(S(N)(=O)=O)c3c2[C@H](F)C(F)(F)[C@H]3O)c1 [Compound 339]

Continued, compound first:

SMILES | EC50 [nM]
CS(=O)(=O)c1ccc(Oc2cc(F)cc(C#N)c2)c2c1C(O)C(F)C2 (stereo not shown) [Compound 232] | < 50
CNS(=O)(=O)c1ccc(Oc2cc(F)cc(F)c2)c2c1[C@H](O)C(F)(F)C2 [Compound 251] | 50 to 249
N#Cc1cc(F)cc(Oc2ccc(S(N)(=O)=O)c3c2[C@@H](F)C(F)(F)[C@H]3O)c1 [Compound 338] | < 50
CS(=O)(=O)c1ccc(Oc2cc(F)cc(C#N)c2)c2c1[C@H](O)[C@H](F)[C@@H]2F [Compound 289, 3-[(1S,2S,3R)-2,3-difluoro-1-hydroxy-7-methylsulfonyl-indan-4-yl]oxy-5-fluoro-benzonitrile] | < 50
CS(=O)(=O)c1ccc(Oc2cc(F)cc(C#N)c2)c2c1C(O)C(F)(F)C2 (stereo not shown) [Compound 223] | 50 to 249
CS(=O)(=O)c1ccc(Oc2cc(F)cc(C#N)c2)c2c1[C@H](O)[C@H](F)C2 [Compound 231] | < 50
CS(=O)(=O)c1ccc(Oc2cc(F)cc(C#N)c2)c2c1[C@H](N)C(F)(F)C2 [Compound 165] | 50 to 249
CS(=O)(=O)c1ccc(Oc2cc(F)cc(C#N)c2)c2c1[C@@H](O)C(F)(F)C2 [Compound 226] | > 1000
N#Cc1cc(F)cc(Oc2ccc(S(N)(=O)=O)c3c2CC(F)(F)[C@H]3O)c1 [Compound 252] | 50 to 249
CNS(=O)(=O)c1ccc(Oc2cc(F)cc(C#N)c2)c2c1[C@H](O)C(F)(F)C2 [Compound 254] | 50 to 249
N#Cc1cc(Cl)cc(Oc2ccc(S(=O)(=O)CF)c3c2CC(F)(F)[C@H]3O)c1 [Compound 167] | < 50
CS(=O)(=O)c1ccc(Oc2cc(F)cc(C#N)c2)c2c1[C@H](O)[C@@H](F)C2 [Compound 271] | 250 to 1000

Same assay, conditions: read-out: Mean Luciferase EC50 (nM), 786-O-Hif-Luc cells

EC50 [nM] | SMILES
> 1000 | O=S(=O)(c1ccc(CCO)c2c1[C@H](O)C(F)(F)C2)C(F)(F)F [Compound 496, (S)-2,2-difluoro-4-(2-hydroxyethyl)-7-((trifluoromethyl)sulfonyl)-2,3-dihydro-1H-inden-1-ol]
250 to 1000 | CS(=O)(=O)c1ccc(OC2CCC2)c2c1[C@H](O)C(F)(F)[C@@H]2F [Compound 753]
250 to 1000 | O=S(=O)(c1ccc(Oc2cc(F)cc(F)c2)c(Cl)c1CO)C(F)F [Compound 168]
> 1000 | Cc1c(Oc2cc(F)cc(Cl)c2)ccc(S(=O)(=O)C(F)(F)F)c1Br [Compound 140]
> 1000 | CC(C)(C#N)COc1ccc(S(=O)(=O)C(F)(F)F)c2c1CCC2O (stereo not shown) [Compound 609]
50 to 249 | C[C@]1(C#N)C[C@H](Oc2ccc(S(=O)(=O)C(F)(F)F)c3c2C[C@H](F)[C@H]3O)C1 [Compound 795]
> 1000 | CS(=O)(=O)c1ccc(OCC(F)F)c2c1[C@H](O)C(F)(F)[C@@H]2F [Compound 755]
50 to 249 | N#Cc1cc(F)cc(Oc2ccc(S(N)(=O)=O)c3c2[C@@H](F)[C@@H](F)[C@H]3O)c1 [Compound 336]
50 to 249 | O=S1(=O)c2ccc(Oc3cc(F)cc(F)c3)c(C(F)F)c2C(O)C1F (stereo not shown) [Compound 369]
< 50 | O=S(=O)(c1ccc(Oc2ccc(F)c3[nH]ncc23)c2c1[C@H](O)C(F)(F)C2)C(F)(F)F [Compound 266]
< 50 | N#Cc1cc(F)cc(Oc2ccc(S(=O)(=O)CCl)c3c2CC(F)(F)[C@H]3O)c1 [Compound 215]
50 to 249 | O=S(=O)(CF)c1ccc(Oc2cc(F)cc(Cl)c2)c2c1[C@H](O)CC2 [Compound 61]
> 1000 | CS(=O)(=O)c1ccc(Oc2cc(F)cc(C#N)c2)c2c1C(O)CC2 (stereo not shown) [Compound 222]
250 to 1000 | N[C@@H]1c2c(ccc(Oc3cc(F)cc(Br)c3)c2Br)S(=O)(=O)C1(F)F [Compound 462]
50 to 249 | O=S(=O)(c1ccc(Oc2ccc(F)c3[nH]ncc23)c2c1C(O)C(F)(F)C2)C(F)(F)F (stereo not shown) [Compound 241]
250 to 1000 | CC1(C#N)CC(Oc2ccc(S(C)(=O)=O)c3c2[C@@H](F)C(F)(F)[C@H]3O)C1 (stereo partly shown) [Compound 766]
250 to 1000 | N#Cc1cc(F)cc(Oc2ccc(S(=O)(=O)C(F)F)c(CO)c2Cl)c1 [Compound 42]
250 to 1000 | CS(=O)(=O)c1ccc(Oc2cc(F)cc(Cl)c2)c(C(F)F)c1CO [Compound 54]
> 1000 | N#CC1(COc2ccc3c(c2C(F)F)C(O)C(F)(F)S3(=O)=O)CC1 (stereo not shown) [Compound 455]
< 50 | O=S(=O)(c1ccc(Oc2cncc(Cl)c2)c2c1[C@H](O)C(F)(F)C2)C(F)F [Compound 25]
> 1000 | O=[N+]([O-])c1ccc(Oc2cc(F)cc(Cl)c2)c2c1C(O)CC2 (stereo not shown) [Compound 255]

More lines, now with the values behind:

SMILES | EC50 [nM]
N#Cc1cc(F)cc(Oc2ccc(S(=O)(=O)CCO)c3c2CC(F)(F)C3O)c1 (stereo not shown) [Compound 250] | > 1000
O=C1CCc2c(Oc3cc(F)cc(Cl)c3)ccc(S(=O)(=O)C(F)F)c21 [Compound 18] | > 1000
O=S(=O)(c1ccc(Oc2cc(F)cc(Cl)c2)c(Cl)c1CCl)C(F)F [Compound 46] | > 1000
N#Cc1cc(F)cc(Oc2ccc(S(=O)(=O)C(F)F)c3c2CC(F)(F)[C@@H]3O)c1 [Compound 237] | 50 to 249
Cn1cc(Oc2ccc(S(=O)(=O)C(F)(F)F)c3c2CC(F)(F)[C@H]3O)cn1 [Compound 224] | 50 to 249
CS(=O)(=O)c1ccc(Oc2cc(F)cc(C#N)c2)c2c1[C@H](O)CC2 [Compound 287] | 250 to 1000
N#Cc1cccc(Oc2ccc(S(=O)(=O)C(F)F)c(CO)c2Cl)c1 [Compound 43] | 250 to 1000
N#Cc1cc(F)cc(Oc2ccc(S(=O)(=O)C(F)F)c3c2CC(F)(F)[C@H]3O)c1 [Compound 15, 3-[(1S)-7-(difluoromethylsulfonyl)-2,2-difluoro-1-hydroxy-indan-4-yl]oxy-5-fluoro-benzonitrile] | < 50
Cc1c(S(C)(=O)=O)ccc(Oc2cc(F)cc(Cl)c2)c1C#N [Compound 50] | > 1000
CS(=O)(=O)c1ccc(Oc2cc(F)cc(C#N)c2)c2c1[C@H](O)[C@H](F)[C@H]2F [Compound 294] | 250 to 1000
N#Cc1cc(F)cc(Oc2ccc(S(=O)(=O)C(F)F)c3c2CC(F)(F)C3O)c1 (stereo not shown) [Compound 11] | < 50
CC(C)Oc1ccc2c(c1C#N)C(C)(O)C(F)(F)S2(=O)=O (stereo not shown) [Compound 456] | > 1000

Biological target: T1, HIF-2α HIS TAG-PASB Domain (Homo sapiens, UniProt Q99814)
T1 construct: 100 nM HIF-2α HIS TAG-PASB Domain
Assay: HIF-2α Scintillation Proximity Assay (SPA)
Type: binding
Details: read-out: Scintillation Proximity Assay IC50
Procedure, shortened: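 IC50 values rest on percent inhibition, where the sample signal is scaled between high and low controls. Wells contain about 100 μL: compound dispensed as 2 μL of DMSO solution, 88 μL protein-probe mix and 10 μL of beads.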

T1 sequence (Q99814 240-350 limits assumed): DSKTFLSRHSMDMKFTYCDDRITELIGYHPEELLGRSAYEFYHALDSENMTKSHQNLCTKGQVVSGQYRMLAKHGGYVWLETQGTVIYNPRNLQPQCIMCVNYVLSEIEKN

IC50 [nM] | SMILES
250 to 1000 | O=S(=O)(c1ccc(CCO)c2c1[C@H](O)C(F)(F)C2)C(F)(F)F [Compound 496, (S)-2,2-difluoro-4-(2-hydroxyethyl)-7-((trifluoromethyl)sulfonyl)-2,3-dihydro-1H-inden-1-ol]
< 50 | CS(=O)(=O)c1ccc(OC2CCC2)c2c1[C@H](O)C(F)(F)[C@@H]2F [Compound 753]
< 50 | O=S(=O)(c1ccc(Oc2cc(F)cc(F)c2)c(Cl)c1CO)C(F)F [Compound 168]
< 50 | Cc1c(Oc2cc(F)cc(Cl)c2)ccc(S(=O)(=O)C(F)(F)F)c1Br [Compound 140]
50 to 249 | CC(C)(C#N)COc1ccc(S(=O)(=O)C(F)(F)F)c2c1CCC2O (stereo not shown) [Compound 609]
50 to 249 | C[C@]1(C#N)C[C@H](Oc2ccc(S(=O)(=O)C(F)(F)F)c3c2C[C@H](F)[C@H]3O)C1 [Compound 795]
50 to 249 | CS(=O)(=O)c1ccc(OCC(F)F)c2c1[C@H](O)C(F)(F)[C@@H]2F [Compound 755]
> 1000 | O=S(=O)(c1ccc(Cn2ccnn2)c2c1[C@H](O)C(F)(F)C2)C(F)(F)F [Compound 536]
> 1000 | CNCCOc1ccc(S(=O)(=O)C(F)(F)F)c2c1CC(F)(F)C2O (stereo not shown) [Compound 650]
< 50 | COCCNC1c2c(ccc(Oc3cc(F)cc(F)c3)c2Br)S(=O)(=O)C1(F)F (stereo not shown) [Compound 379]
> 1000 | CC(=O)Nc1ccc(S(=O)(=O)C(F)(F)F)c2c1CCC2O (stereo not shown) [Compound 518]
> 1000 | CC(=O)NCCOc1ccc(S(=O)(=O)C(F)(F)F)c2c1CC(F)(F)C2O (stereo not shown) [Compound 636]

The remaining lines, values behind:

SMILES | IC50 [nM]
N#Cc1cc(F)cc(Oc2ccc(S(=O)(=O)CCO)c3c2CC(F)(F)C3O)c1 (stereo not shown) [Compound 250] | > 1000
O=C1CCc2c(Oc3cc(F)cc(Cl)c3)ccc(S(=O)(=O)C(F)F)c21 [Compound 18] | 50 to 249
O=S(=O)(c1ccc(Oc2cc(F)cc(Cl)c2)c(Cl)c1CCl)C(F)F [Compound 46] | 250 to 1000
O=S(=O)(c1ccc(Oc2c(F)cccc2F)c(Br)c1)C(F)(F)F [Compound 176] | > 1000
N#Cc1cc(F)cc(Oc2ccc(S(=O)(=O)C(F)F)c(C#N)c2Br)c1 [Compound 77] | > 1000
